Experimental data published in US8653095B2, “Small molecules with antimalarial activity” (Radix Pharmaceuticals, Inc., priority 2011, dated 2014).
Values joined by “and” are separate entries in the source; they are usually repeats but may differ in a detail not shown here. Equal entries are not always repeated.

Legend:
[1] = system: Liver stage of P. yoelii yoelii; experiment: In vitro liver-stage antimalarial efficacy evaluation; assay type: cell-based; settings: Plasmodium yoelii
Description: In Vitro Liver-Stage Antimalarial Efficacy Evaluation. Any new desirable antimalarial drug should be broad spectrum: it should be active against both the blood stage and the liver stage of the parasite. New compounds were assessed on the Plasmodium yoelii liver stage in vitro. The liver stage of P. yoelii is a parasite of rodent extensively used as an experimental model for studying the initial phase of the malaria infection.

P. falciparum K1 = experiment: In vitro blood stage antimalarial efficacy, [3H]hypoxanthine uptake, strain K1; assay type: cell-based; settings: Plasmodium falciparum, read-out: IC50
Description: (§1) In Vitro Blood Stage Antimalarial Efficacy Evaluation. New compounds were tested against a panel of strains of P. falciparum.
(§2) Test compounds were initially dissolved in DMSO and diluted 400 fold in RPMI 1640 culture medium supplemented with 25 mM Hepes, 32 mM NaHCO3 and 10% Albumax I (Gibco, NY). These solutions were subsequently serially diluted two-fold with a Beckman Biomek® 1000 Robot (Fullerton, Calif.) over 11 different concentrations. The parasites were exposed to serial dilutions of each compound for 48 hrs and incubated at 37° C. with 5% O2, 5% CO2 and 90% N2 prior to the addition of [^3H]hypoxanthine. After a further incubation of 18 hrs, parasite DNA was harvested from each microtiter well using Packard Filtermate™ 196 Harvester (Meriden, Conn.) onto glass filters. Uptake of [^3H]hypoxanthine was measured with a Packard TopCount Liquid Scintillation Counter (Packard Instrument Co.).

P. falciparum DD2 = experiment: In vitro blood stage antimalarial efficacy, [3H]hypoxanthine uptake, strain DD2; assay type: cell-based; settings: Plasmodium falciparum, read-out: IC50
Description: as §1, §2

P. falciparum TM6 = experiment: In vitro blood stage antimalarial efficacy, [3H]hypoxanthine uptake, strain TM6; assay type: cell-based; settings: Plasmodium falciparum; read-out: IC50
Description: as §1, §2

[2] = system: Plasmodium cynomolgi sporozoite; experiment: Causal prophylactic activity in P. cynomolgi sporozoite-challenged Rhesus monkeys; assay type: in vivo; settings: PO, 15 mg/kg, 1 daily for 3 days, one value per monkey
Source text: Two monkeys were used in each test group. The control animals developed parasitemia in about 10 days after inoculation of about 1×10^6 P. cynomolgi sporozoites harvested from Anopheles dirus. All the monkeys received three treatments, once a day for three consecutive days beginning a day before (−1, 0,+1) the sporozoites challenge. The control monkeys (group 1) received HECT and the experimental animals received testing compound by using 8 Fr., 15-in. long nasogastric tubes.

P. falciparum 3D7 = experiment: In vitro blood stage antimalarial efficacy, [3H]hypoxanthine uptake, strain 3D7; assay type: cell-based; settings: Plasmodium falciparum, read-out: IC50
Description: as §1, §2

Plasmodium berghei = experiment: Oral prophylactic test in mice; assay type: in vivo; settings: for Mice infected and treated/Mice surviving day 60: oral; for Protection from malaria (oral prophylactic activity): mice, single dose of 0.5 mg/kg within 2 days pre-infection through 2 days post-infection
Description: Derivative compounds were also tested for oral prophylactic activity.
CD-I male or female mice, 5 weeks of age, were infected with 5×10^4 parasitized erythrocytes of Plasmodium berghei strain. Blood films were taken on day +6 and weekly thereafter until day+30. […]

[3] = day of treatment 1, dose 0.5 mg/kg
[4] = day of treatment 1, dose 2 mg/kg
[5] = day of treatment 1, dose 8 mg/kg
[6] = day of treatment 1, dose 32 mg/kg
[7] = day of treatment 2, dose 0.5 mg/kg
[8] = day of treatment 2, dose 2 mg/kg
[9] = day of treatment 2, dose 8 mg/kg
[10] = day of treatment 2, dose 32 mg/kg
[11] = day of treatment −1, dose 0.5 mg/kg
[12] = day of treatment −1, dose 2 mg/kg
[13] = day of treatment −1, dose 8 mg/kg
[14] = day of treatment −1, dose 32 mg/kg
[15] = day of treatment −2, dose 0.5 mg/kg
[16] = day of treatment −2, dose 2 mg/kg
[17] = day of treatment −2, dose 8 mg/kg
[18] = day of treatment −2, dose 32 mg/kg

Compound	IC50 [1] [nM]	IC50 (P. falciparum K1) [nM]	IC50 (P. falciparum DD2) [nM]	IC50 (P. falciparum TM6) [nM]	Parasite patency (days postinoculation) [2]	IC50 (P. falciparum 3D7) [nM]	Mice infected and treated/Mice surviving day 60 (Plasmodium berghei; [3])	Mice infected and treated/Mice surviving day 60 (Plasmodium berghei; [4])	Mice infected and treated/Mice surviving day 60 (Plasmodium berghei; [5])	Mice infected and treated/Mice surviving day 60 (Plasmodium berghei; [6])	Mice infected and treated/Mice surviving day 60 (Plasmodium berghei; [7])	Mice infected and treated/Mice surviving day 60 (Plasmodium berghei; [8])	Mice infected and treated/Mice surviving day 60 (Plasmodium berghei; [9])	Mice infected and treated/Mice surviving day 60 (Plasmodium berghei; [10])	Mice infected and treated/Mice surviving day 60 (Plasmodium berghei; [11])	Mice infected and treated/Mice surviving day 60 (Plasmodium berghei; [12])	Mice infected and treated/Mice surviving day 60 (Plasmodium berghei; [13])	Mice infected and treated/Mice surviving day 60 (Plasmodium berghei; [14])	Mice infected and treated/Mice surviving day 60 (Plasmodium berghei; [15])	Mice infected and treated/Mice surviving day 60 (Plasmodium berghei; [16])	other results
CC[C@@H](N)[C@H](O)[C@H](O)[C@H](COC)[C@@H]1CC[C@@]23CC24c2nc5ccc(OC)cc5cc2C(=O)N[C@H]4CN13 (stereo partly shown) [Formula B]	5.8	0.22 ± 0.05	0.27 ± 0.07	0.18 ± 0.03	41 days and 55 days	0.19 ± 0.04	5/5	5/5	5/5	5/5	5/5	5/5	5/5	5/5	5/5	5/5	5/5	5/5	5/5	5/5	Mice infected and treated/Mice surviving day 60 (Plasmodium berghei; [17]): 5/5; Mice infected and treated/Mice surviving day 60 (Plasmodium berghei; [18]): 5/5; Protection from malaria (oral prophylactic activity) (Plasmodium berghei): completely protected
COC[C@@H]([C@@H](O)[C@@H](O)[C@H](N)Cc1ccccc1)[C@@H]1CC[C@@]23CC24c2nc5ccc(OC)cc5cc2C(=O)N[C@H]4CN13 (stereo partly shown) [Formula C]	7.1	0.25 ± 0.04	0.16 ± 0.03	0.09 ± 0.02	48 days and 64 days	0.22 ± 0.05	5/5	5/5	5/5	5/5	5/5	5/5	5/5	5/5	5/5	5/5	5/5	5/5	5/5	5/5	Mice infected and treated/Mice surviving day 60 (Plasmodium berghei; [17]): 5/5; Mice infected and treated/Mice surviving day 60 (Plasmodium berghei; [18]): 5/5; Protection from malaria (oral prophylactic activity) (Plasmodium berghei): completely protected
